According to patent publication US11819491B2, “Dilutable formulations of cannabinoids and processes for their preparation” (Yissum Research Development Company of the Hebrew …, priority 2016, dated 2023):

Assay: Stability of CBD in simulated gastric fluid (SGF)
Assay type: physicochemical
Conditions: 37° C.
Description: A medium of stimulating gastric fluid (SGF) was prepared by dissolving sodium chloride (0.2 w/v %) and hydrochloric acid (0.1M) in DDW, and incubated at 37° C.
For MeOH solution sodium dodecyl sulfate (1 w/v %) was added to the SGF. 500 ml of SGF mediums was contained in an appropriate Erlenmeyer flask. At time 0-1 ml of each CBD stock solution was added to the SGF. The mixture was vigorously shaken at a water bath warmed to 37° C. and immediately 1 ml of the solution was sampled and replaced with an equal volume of preheated SGF medium. Similarly, same volume was sampled at 5, 10, 15, 20, 30, 45, 60, 75, 90, 120, 150 and 180 minutes. Each 1 mL sample was immediately neutralized to a pH of 7 to 9, with 980 μL of 0.1M sodium hydroxide solution and 3 ml MeOH, and pH levels were tested. All samples were kept at 4° C. until HPLC analysis.
For MeOH solution and AX1 system additional samples were taken every 30 min and injected directly into the HPLC without further treatment. […] The measured CBD concentration was divided to the initial concentration (C/C0) at each time point.
In comparison, the CBD profile in SGF with a commercial product (‘RSHO’™—containing CBD dissolved in vegetable oil) and CBD dissolved in pure olive oil were evaluated.

C=C(C)[C@@H]1CCC(C)=C[C@H]1c1c(O)cc(CCCCC)cc1O [CBD in MeOH, cannabidiol]
Start of CBD degradation: 5 min | CBD left (after 2 hours): less than 4% | CBD degradation in SGF (in words) (up to 180 min): significant degradation over time | CBD decomposed (within 30 min): 68%
